Measurements from BigSolDB 2.1.

CCC(CO)(CO)C(=O)O
solubility (mole fraction)
Settings | in 1,4-dioxane | in MIBK | in cyclopentyl methyl ether | in ethyl acetate | in gamma-butyrolactone | in n-butyl acetate | in toluene
298.15 K | 0.122 | 0.0218 | 0.0121 | 0.0111 | 0.0688 | 0.0119 | 0.00039
303.15 K | 0.153 | 0.0297 | 0.013 | 0.0184 | 0.0859 | 0.0125 | 0.00056
308.15 K | 0.176 | 0.0362 | 0.0168 | 0.0228 | 0.105 | 0.0129 | 0.00073
313.15 K | 0.201 | 0.0433 | 0.0208 | 0.0281 | 0.136 | 0.0153 | 0.0008
318.15 K | 0.217 | 0.0523 | 0.0266 | 0.0338 | 0.151 | 0.0228 | 0.00087
323.15 K | 0.259 | 0.0575 | 0.032 | 0.0443 | 0.173 | 0.0317 | 0.00093
328.15 K | 0.324 | 0.07 | 0.0374 | 0.0539 | 0.212 | 0.0379 | 0.00093
333.15 K | – | 0.077 | 0.0425 | 0.0612 | 0.232 | 0.0477 | 0.00099
338.15 K | – | 0.0891 | 0.054 | 0.069 | 0.263 | 0.0619 | 0.00105
343.15 K | – | 0.11 | 0.0674 | – | – | 0.0768 | –
345.15 K | – | 0.121 | 0.0749 | – | – | 0.093 | –
348.15 K | – | 0.132 | 0.0917 | – | – | 0.111 | –
350.15 K | – | 0.156 | 0.107 | – | – | 0.132 | –
353.15 K | – | 0.184 | 0.133 | – | – | 0.169 | –
